Assays:
[1] = Control experiment: 1,2-diiodo-1-methylcyclopropane in tetrahydrofuran without reagent, GC of headspace; type: physicochemical; conditions: 0.30 g in 2 ml tetrahydrofuran, no reagent, stirring 5 minutes; 1 ppm easily detectable
Description: (§1) Into a 50 ml Florence flask with magnetic stirring was placed 2 ml of tetrahydrofuran and 0.30 g of 1,2-diiodo-1-methylcyclopropane. […] GC method uses Varian CP-PoraBOND Q column 10 meters long 0.32 mm ID; helium carrier; initial temperature 50° C.; initial time 0 minutes; ramp rate 20° C./min; final temperature 270° C.; final time 5 minutes; injection volume 0.20 ml. The retention time of an authentic sample of 1-methylcyclopropene was 2.91 minutes. 1 ppm is easily detectable under these conditions.

[2] = Chemically induced release of a cyclopropene (1-methylcyclopropene) by a reducing or nucleophilic agent, GC of headspace; type: physicochemical
Description: as §1
Into a 100 ml Florence flask with magnetic stirring was placed 2 ml of tetrahydrofuran and 1.0 g of zinc dust. The zinc was activated with 10 drops of 1,2-dibromoethane. Then 0.34 g of 1,2-diiodo-1-methylcyclopropane was added.
Into a 100 ml Florence flask with magnetic stirring was placed 2 ml of methanol and 1.0 g of zinc dust. The zinc was activated with 10 drops of 1,2-dibromoethane. Then 0.34 g of 1,2-diiodo-1-methylcyclopropane was added.
Into a 100 ml Florence flask with magnetic stirring was placed 2 ml of tetrahydrofuran and 1.1 g of magnesium turnings. The magnesium was activated with 10 drops of 1,2-dibromoethane. Then 0.35 g of 1,2-diiodo-1-methylcyclopropane was added.
Into a 50 ml Florence flask with magnetic stirring was placed 3 g of dimethylformamide and 1.2 g of triphenylphosphine. Then 0.83 g of 1,2-diiodo-1-methylcyclopropane was added.
Into a 100 ml Florence flask with magnetic stirring was placed 2 g of dimethylformamide, 0.70 g of potassium t-butoxide, and 0.84 g of 4-methylbenzenethiol. Then 0.40 g of 1,2-diiodo-1-methylcyclopropane was added.
The polymeric reagent was prepared by slurrying 50 ml of Duolite™ GT73 (Rohm and Haas Company) and stirring for two hours with 50 ml of water and 10 g of 45% aqueous potassium hydroxide. The slurry was filtered, washed twice with water, thrice with methanol, air dried, and placed in a vacuum oven overnight. 0.54 g of this polymeric reagent was placed in a 122 ml vial and the beads were wetted with 0.10 g of 1,2-diiodo-1-methylcyclopropane in 0.70 g of methanol.

1-methylcyclopropene in headspace (GC analysis) [1]: no detectable 1-methylcyclopropene | 1-methylcyclopropene in headspace (GC analysis) ([2]; magnesium turnings 1.1 g (activated with 1,2-dibromoethane) in 2 ml tetrahydrofuran, 0.35 g precursor, 100 ml flask, stirring 3 hours): 49993 ppm | 1-methylcyclopropene in headspace (GC analysis) ([2]; polymeric benzenethiol reagent (Duolite GT73, KOH treated) 0.54 g, 0.10 g precursor in 0.70 g methanol, 122 ml vial, overnight at room temperature): 134 ppm | 1-methylcyclopropene in headspace (GC analysis) ([2]; triphenylphosphine 1.2 g in 3 g dimethylformamide, 0.83 g precursor, 50 ml flask, 15 minutes at room temperature): 10 ppm | 1-methylcyclopropene in headspace (GC analysis) ([2]; zinc dust 1.0 g (activated with 1,2-dibromoethane) in 2 ml methanol, 0.34 g precursor, 100 ml flask, stirring 30 minutes): 98390 ppm | 1-methylcyclopropene in headspace (GC analysis) ([2]; zinc dust 1.0 g (activated with 1,2-dibromoethane) in 2 ml tetrahydrofuran, 0.34 g precursor, 100 ml flask, stirring 20 hours): 4658 ppm
Structure (SMILES): CC1(I)CC1I (stereo not shown) [Example 60, 1,2-diiodo-1-methylcyclopropane]
1-methylcyclopropene in headspace (GC analysis) ([2]; 4-methylbenzenethiol 0.84 g, potassium t-butoxide 0.70 g in 2 g dimethylformamide, 0.40 g precursor, 100 ml flask, 15 minutes at room temperature): 87567 ppm
